By EC50 is commonly meant the concentration that produces a half-maximal response. By IC50 is commonly meant the midpoint of a concentration-inhibition curve. One may read the AC50 as the midpoint of the concentration-response curve, whichever way the signal moves. What is called CC50 is the concentration giving 50% cytotoxicity.

Active and inactive are the calls of the source.

Experimental findings from ChEMBL document CHEMBL1201862, “PubChem BioAssay data set” (2004) are described below.

The subject of assay [1] is Streptococcus. In words: Group A Streptococcus viability loss, dose response, counter-screen for streptokinase expression inhibitor project, luminescence, BacTiterGlo (AID 1915).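 Further: potency for reduction of bacterial viability or growth.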 Format: functional, organism-based. In general terms: Counterscreens check selectivity or assay interference.
For assay [2], the target named is Luciferin 4-monooxygenase (Photinus pyralis, UniProt P08659). As to the kind of experiment: firefly luciferase enzyme inhibitors, dose response, biochemical, luminescence (AID 1891).
Assay [3] in a line: Fluorescence Cell-Based Dose Response to Identify Inhibitors of Thrombin Receptor-Activating Peptide SFLLRN-Mediated P-Selectin Induction on Platelets. [Related pubchem assays: 1663 (Primary HTS), 1889 (retest at dose ), 1891 (counterscreen), 1678 (Project Summary)]. Format: functional.
In assay [4] the test system is Streptococcus sp. 'group A'. As to the kind of experiment: growth inhibition of control SK(-) GAS strain, dose response, counter-screen for streptokinase expression inhibitor project, luminescence, kanamycin, BacTiterGlo, confirmation (AID 1900). Format: functional, organism-based.
In assay [5] the target is T1, Streptokinase A (Streptococcus pyogenes serotype M1, UniProt P10520).
T1 sequence (P10520 whole entry): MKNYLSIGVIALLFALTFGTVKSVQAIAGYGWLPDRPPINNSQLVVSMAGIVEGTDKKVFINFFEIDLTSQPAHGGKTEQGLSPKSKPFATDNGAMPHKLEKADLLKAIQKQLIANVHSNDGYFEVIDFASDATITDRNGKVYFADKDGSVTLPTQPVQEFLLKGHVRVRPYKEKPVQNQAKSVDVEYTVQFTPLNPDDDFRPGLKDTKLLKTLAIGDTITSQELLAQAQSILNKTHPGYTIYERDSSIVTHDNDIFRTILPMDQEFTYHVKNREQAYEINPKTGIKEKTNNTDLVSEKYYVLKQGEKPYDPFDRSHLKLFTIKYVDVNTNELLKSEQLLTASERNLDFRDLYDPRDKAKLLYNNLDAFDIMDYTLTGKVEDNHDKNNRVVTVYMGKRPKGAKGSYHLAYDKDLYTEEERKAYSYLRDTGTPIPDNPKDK
In words: S. pyogenes streptokinase expression inhibitors, potency, dose response, plasminogen activation absorbance, OD405 (AID 1914).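 Further: secreted streptokinase activity via plasminogen activation per viability signal from cell pellet.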 In kind it is functional, Streptococcus pyogenes M1 GAS.

The nature of assay [6]: Luminescence Cell-Based Dose Confirmation HTS to Identify Inhibitors of Platelet Dense Granule Release. [Related pubchem assays: 1663 (Primary HTS), 1678 (Summary of Project)]. Format: functional.
Assay [7] deals with T2, Tyrosine-protein phosphatase non-receptor type 7 (Homo sapiens, UniProt P35236).
T2 sequence (P35236 whole entry): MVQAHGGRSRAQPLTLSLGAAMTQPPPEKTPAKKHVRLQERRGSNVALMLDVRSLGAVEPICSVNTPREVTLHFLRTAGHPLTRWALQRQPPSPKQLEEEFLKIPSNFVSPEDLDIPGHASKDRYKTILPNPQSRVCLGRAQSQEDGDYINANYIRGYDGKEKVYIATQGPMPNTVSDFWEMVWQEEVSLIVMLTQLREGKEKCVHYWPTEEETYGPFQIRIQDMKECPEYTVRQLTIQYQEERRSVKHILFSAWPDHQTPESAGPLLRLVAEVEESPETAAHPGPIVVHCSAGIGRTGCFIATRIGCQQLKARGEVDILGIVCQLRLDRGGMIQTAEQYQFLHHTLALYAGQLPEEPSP
In words: inhibitors of human HePTP phosphatase, […], biochemical, absorbance, leukemia target (AID 521). In kind it is functional.

Assay [8] can be described thus: control 3'UTR Renilla luciferase suppression, dose response, counter-screen for Shn3 inhibitor project, cell-based, Clone20-Shn3RL, cherry-picked (AID 624133). In kind it is functional.
A short description of assay [9]: inhibitors of HIV Env-driven cell fusion, dose response, cherry-pick (AID 652057). In kind it is functional, cell-based.
The nature of assay [10]: CEM21 cell cytotoxicity, dose response, cytotoxicity control, plate reader, dry powder (AID 687026). Format: functional, cell-based.
Assay [11] addresses Galanin receptor type 2 (Homo sapiens, UniProt O43603). In words: Dose Response cell-based high-throughput screening assay to identify antagonists of galanin receptor 2 (GALR2). [Related pubchem assays: 828, 866 ]. Format: functional.
Assay [12] is described as follows: cytotoxicity in HEK-293T NF-kB-Luc cells, dose response, cytotoxicity control for B/T-cell NF-kB inhibitor project, cell-based, uHTS hits (AID 489019).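 Further: IC50 reflects cytotoxicity as loss of cell viability.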 Format: functional.
Assay [13] is described as follows: inhibitors of clade B AD8 Env fusion, dose response, cell-based, cherry-pick (AID 652062).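 Further: luciferase signal from cell-cell fusion driven by HIV-1 clade B AD8 Env; potency is for inhibitors of fusion seen as a drop in luminescence.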 Format: functional.
In assay [14] the test system is INS1. In words: beta cell apoptosis inhibitors, cytokine rescue, dose response, luminescence, retest (AID 449756).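 Further: cell death triggered by IL-1 beta plus TNF-alpha plus IFN-gamma mixture; protective hits raise ATP signal compared with cytokine alone wells.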 In kind it is functional, cell-based. The following applies: Rattus norvegicus.
The nature of assay [15]: Shn3 3'UTR reporter inhibitors, dose response, cell-based, Clone20 osteoblasts, firefly luciferase, cherry-picked (AID 624132).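 Further: firefly luciferase luminescence from reporter carrying the Shn3 3'UTR in osteoblasts.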 In kind it is functional.
A short description of assay [16]: off-target signal loss in HeLa-CEM21 co-culture – HeLa F-luc CTL cells, cherry-picked, counter-screen for HIV-1 Env fusion inhibitor project, dose response (AID 652040).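 Further: potency for signal decrease marking cytotoxic or nonspecific inhibition.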 In kind it is functional, cell-based.
The target in assay [17] is COUP transcription factor 2 (Homo sapiens, UniProt P24468). As to the kind of experiment: Luminescence-based cell-based high throughput dose response assay to identify inhibitors of COUP-TFII (NR2F2). In kind it is functional.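 Further: HEK293 cells transiently cotransfected with COUP-TFII expression vector and reporter; luciferase reporter luminescence driven by COUP-TFII from the pX2-168 reporter plasmid.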
Assay [18] in a line: ZM109 Env clade C HIV-1 fusion inhibitors, dose response, HeLa effector, CEM target cells, luciferase, cherry-pick (AID 652058). Format: functional, cell-based.
Assay [19] deals with Jurkat. As to the kind of experiment: antigen receptor-induced NF-kB inhibitors, dose response, Jurkat, luciferase reporter, luminescence, B- and T-cell (AID 489004).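 Further: NF-kB luciferase reporter Jurkat cells stimulated with PMA plus ionomycin.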 Format: functional, cell-based. Particulars: Homo sapiens.
Assay [20] is described as follows: HepG2 cell cytotoxicity, dose response, cytotoxicity control for Shn3 inhibitor project, CellTiter-Glo, cherry-picked (AID 624134). In kind it is functional, cell-based.
Assay [21] concerns the target T1, Streptokinase A. In words: Absorbance Microorganism-Based Dose Response Follow up to Identify Inhibitors of Streptokinase Expression. [Related pubchem assays: 1677 (Project Summary), 1915, 1914, 1902 (Retest at Dose), 1900 (Counter Screen), 1662 (Primary HTS)]. In kind it is functional, Streptococcus pyogenes M1 GAS.
The subject of assay [22] is Streptococcus. As to the kind of experiment: Streptococcus pyogenes growth inhibition counter-screen, dose response, counter-screen for streptokinase expression inhibitor project, luminescence, BacTiter-Glo, strain UMAA2166 (AID 2477). Format: functional, organism-based.
Assay [23] concerns Vero. As to the kind of experiment: cytotoxicity of synthesized analogs in Vero cells, SAR follow-up, cytotoxicity control for West Nile virus antiviral project, cell-based, set II (AID 2402). Format: functional. Particulars: Chlorocebus sabaeus.

Sequence of COUP transcription factor 2 (P24468 whole entry, the tested form may be a part): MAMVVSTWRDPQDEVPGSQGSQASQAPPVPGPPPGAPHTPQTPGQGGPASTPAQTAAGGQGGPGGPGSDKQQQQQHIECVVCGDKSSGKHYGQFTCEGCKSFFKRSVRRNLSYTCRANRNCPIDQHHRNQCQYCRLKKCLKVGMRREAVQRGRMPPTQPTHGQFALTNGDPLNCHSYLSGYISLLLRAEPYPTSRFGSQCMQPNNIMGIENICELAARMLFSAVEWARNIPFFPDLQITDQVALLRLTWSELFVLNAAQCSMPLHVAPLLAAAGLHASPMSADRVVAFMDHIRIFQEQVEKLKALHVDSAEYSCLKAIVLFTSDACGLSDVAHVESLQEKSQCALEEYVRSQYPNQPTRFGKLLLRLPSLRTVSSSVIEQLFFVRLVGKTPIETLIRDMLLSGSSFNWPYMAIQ
Sequence of Galanin receptor type 2 (O43603 whole entry): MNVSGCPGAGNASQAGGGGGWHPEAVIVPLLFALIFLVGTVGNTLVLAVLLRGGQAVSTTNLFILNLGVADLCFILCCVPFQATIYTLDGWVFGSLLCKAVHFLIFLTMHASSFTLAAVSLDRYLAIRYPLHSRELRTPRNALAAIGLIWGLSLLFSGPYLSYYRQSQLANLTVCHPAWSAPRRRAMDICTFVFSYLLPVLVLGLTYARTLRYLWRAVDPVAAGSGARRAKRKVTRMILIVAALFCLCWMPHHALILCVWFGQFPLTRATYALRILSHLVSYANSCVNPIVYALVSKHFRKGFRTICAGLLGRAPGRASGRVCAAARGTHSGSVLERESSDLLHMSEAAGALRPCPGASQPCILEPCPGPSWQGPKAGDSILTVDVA
Sequence of Luciferin 4-monooxygenase (P08659 whole entry): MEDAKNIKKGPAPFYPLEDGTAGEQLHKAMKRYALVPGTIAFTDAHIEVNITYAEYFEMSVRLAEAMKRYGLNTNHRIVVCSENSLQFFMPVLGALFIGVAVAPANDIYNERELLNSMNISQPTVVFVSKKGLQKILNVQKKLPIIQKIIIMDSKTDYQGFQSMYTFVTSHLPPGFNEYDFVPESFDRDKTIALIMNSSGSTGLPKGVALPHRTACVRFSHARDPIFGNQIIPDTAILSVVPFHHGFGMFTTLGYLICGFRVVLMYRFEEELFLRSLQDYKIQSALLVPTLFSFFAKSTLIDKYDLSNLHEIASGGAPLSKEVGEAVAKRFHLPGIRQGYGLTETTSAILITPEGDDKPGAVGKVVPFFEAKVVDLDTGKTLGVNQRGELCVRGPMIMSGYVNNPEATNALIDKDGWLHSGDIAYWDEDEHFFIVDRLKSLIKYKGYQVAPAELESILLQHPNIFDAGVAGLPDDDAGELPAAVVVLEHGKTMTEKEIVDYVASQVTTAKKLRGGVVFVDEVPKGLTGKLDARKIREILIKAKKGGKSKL

On to `CC(=O)Oc1ccc(-c2nc(-c3cccnc3)no2)cc1`, for which the EC50 is 17.3 µM (active) in assay [1]; 8.16 µM (active) in [2]; 30 µM (not active) in assay [3]; 4.89 µM (active) in assay [4]; > 150 µM (not active) in assay [5]; < 0.701 µM (active) in assay [6].

On to `COc1ccccc1C(=O)Nc1ccccc1C(=O)N1CCCC1`, for which, in assay [7], the IC50 was > 100 µM (not active).

With `CCOc1ccc(S(=O)(=O)NCc2ccncc2)cc1`, the AC50 in [8] was 10.5 µM (active); in assay [9] it was 1.36 µM (active); in assay [10] it was > 70 µM (inactive); in [13], 2.72 µM (active); in assay [14] it was 1.08 µM (active); in [15], 0.261 µM (active). Besides, the results for the AC50 in assay [16], in assay [18] and in assay [20] were > 70 µM (inactive), < 0.26 µM (active) and 0.603 µM (active), respectively. Also, the 50% inhibitory concentration (IC50) in [11] was > 42 µM (not active); in assay [12], > 80 µM (inactive); in assay [17], 2.27 µM (active); in [19], > 80 µM (inactive).

As for `CCCOc1ccc(-c2nc(Oc3ccccc3)c3ccccc3n2)cc1`, the EC50 in assay [21] is 71.6 µM (active); in assay [22] it was > 500 µM (not active).

With `COc1ccc(-c2csc(N(C)C(=O)c3ccccc3Cl)n2)cc1`, the CC50 in [23] was > 50 µM (active).
